The source of these data is publication PMC10252989, “Significance of Astragaloside IV from the Roots of Astragalus mongholicus as an Acetylcholinesterase Inhibitor—From the Computational and Biomimetic Analyses to the In Vitro and In Vivo Studies of Safety” (International Journal of Molecular Sciences, 2023).

Data set [1] is described as follows: Biomimetic HPLC lipophilicity determination, cholesterol-bound column. Format: physicochemical. The conditions noted are these: CHOL column; for s (slope of Soczewiński-Wachtmeister equation): ACN-phosphate buffer pH 7.4; for logkw: ACN-phosphate buffer pH 7.4, retention factor extrapolated to pure water. An excerpt:
(§1) To determine lipophilicity of the tested astragalosides, the biomimetic-High Performance Liquid Chromatography (HPLC) systems with a cholesterol-bound (CHOL) stationary phase as well as the Immobilized Artificial Membrane (IAM) column were used. These stationary phases have pseudomembrane properties and therefore are widely applied in chromatographic practice to determine lipophilicity of various groups of compounds, including newly synthesized ones.
(§2) Based on the Soczewiński–Wachtmeister Equation (1), the logarithms of retention factors extrapolated to pure water (logkw) values were calculated. These values can be considered as an alternative to the n-octanol/water partition coefficient recognized as the lipophilicity descriptor [31]. logk = logkw − sφ(1) where logk is the logarithm of the retention factor in the mixed effluent systems; φ is the volume fraction of organic modifier in the mobile phase; s is the slope characteristic of a given solute in the chromatographic system.
(§3) The Shimadzu Vp liquid chromatographic system (Shimadzu, Kyoto, Japan) equipped with an LC 10AT pump, an SPD 10A UV-Vis detector, an SCL 10A system controller, a CTO-10 AS chromatographic oven and a Rheodyne injector valve with a 20 µL loop was applied in the HPLC measurements.
(§4) The solutions of the isolated A IV as well as pharmacopoeial standards of A I–A III were prepared in methanol (Merck, Darmstadt, Germany; p.a.) at a concentration of 1 mg/mL. […] The optimization process of the chromatographic separation was made before the experiment. The flow rate of the mobile phases was established to be 1 mL/min and the temperature was set at 20 °C. The tested compounds were detected with UV light at λ = 203 nm.
(§5) The IAM.PC.DD2 column (IAM; 100 × 4.6 mm i.d., 10 µm; Regis Technologies, Morton Grove, IL, USA) and cholesterol-bonded (CHOL; Cosmosil; 75 × 2 mm i.d., 2.5 µm; Genore, Warsaw, Poland) were used as the stationary phase while the buffered solutions of acetonitrile (ACN) were used as mobile phases. In each measurement the composition of the mobile phases was: 0.3; 0.4; 0.5; 0.6 v/v ACN-buffer. The buffer was prepared from solutions of both Na2HPO4 (0.02 mol/dm^3) and citric acid (0.01 mol/dm^3).
(§6) The dead-time values were measured from the citric acid peaks. All the reported logarithms of the retention factors were measured three times.

Data set [2] can be described thus: Biomimetic HPLC lipophilicity determination, IAM column. Format: physicochemical. The conditions noted are these: for s (slope of Soczewiński-Wachtmeister equation): ACN-phosphate buffer pH 7.4; for logkw: ACN-phosphate buffer pH 7.4, retention factor extrapolated to pure water.
Description: as §1, §2, §3, §4, §5, §6

For data set [3], the target named is acetylcholinesterase (AChE) enzyme (Homo sapiens, UniProt P22303). Nature of the data set: TLC bioautography assay for inhibition of acetylcholinesterase. Format: biochemical. The conditions noted are these: amount of compound per spot. The protocol: In this study, the reference compounds of astragalosides II (A II), III (A III) and IV (A IV) at different concentrations were injected into the normal phase TLC plate covered with silica gel. Each experiment was repeated three times and the average values of the obtained peak areas corresponding to different injections of pure astragalosides were taken for the calculation of IC50 values of the saponins. For the three astragalosides: II, III and IV the following calibration curve equations were obtained: y = 70,773,628.9063x − 62,644.2995 (R^2 = 0.9732), y = 33,106,972.8125x − 67,429.4097 (R^2 = 0.9771), and y = 48,308,195.3125x + 3538.3021 (R^2 = 0.9981), respectively.
The TLC-bioautography method was used to determine the IC50 values of the tested saponins. Owing to the application of this technique, bright spots of active compounds were registered against the dark background. The TLC chromatogram was obtained on aluminium-covered normal phase TLC plates (Merck, Darmstadt, Germany, silica gel 60 F254).
To calculate the strength of the astragalosides, the IC50 values were determined for astragalosides II, III, and IV. For this purpose, 1 mg/mL solutions of all pure compounds were sprayed on the TLC plate using the Camag Linomat 5 (Muttenz, Switzerland) with the decreasing volumes in the range of 0.002–0.008 mg of compounds per spotevery 1 cm.
Later the TLC plate was subjected to the TLC-bioautography assay towards inhibitory properties against the AChE enzymeas described previously. Briefly, first the TLC plates were sprayed with asolution of 30 mg/20 mL of 1-naphtyl acetate. […] The chromatogram was analysed by the WinCats (v. 1.4, Camag) program and the peak areas of every spot were determined. Based on the numerical values obtained corresponding to the intensity of discoloured zones measured with the peak areas, the calibration curves were determined and the IC50 values were calculated as half of the peak area from the biggest spot that stayedwithin the linearity range area.

The conditions of data set [4]: post-mortem brain tissues of mice; cited from earlier work.
The test system of data set [5] is zebrafish (Danio rerio) embryos. Nature of the data set: Zebrafish embryo acute toxicity test (OECD Test No. 236). Format: in vivo. The protocol: Zebrafish (Danio rerio) embryos were obtained from the Experimental Medicine Centre, Medical University of Lublin, Poland. The animals were kept in an incubator under the appropriate environmental conditions (28.5 ± 0.5 °C, light/dark cycle: 14/10 h) up to 96 h post-fertilization (hpf). For the studies, the National Institutes of Health Guide for the Care and Use of Laboratory Animals (Directive 2010/63/EU) was applied. Thus, for the yolk-feeding larvae up to 120 hpf ethical approval is not required. Nevertheless, all attempts were made to minimize the number of animals and their suffering. Immediately after the experiments, the larval zebrafish were euthanized in […] tricaine solution.
In order to assess the effect of astragaloside IV on the developing organism, the zebrafish embryo acute toxicity test was carried out according to the Organization for Economic Cooperation and Development recommendation for the testing of chemicals (Test No. 236) as described previously. One hour after fertilization, viable, perfectly spherical and completely transparent embryos were selected and transferred to 12 well plates (Sarstedt, Germany). The embryos were randomly divided into control and experimental groups. The embryos were kept in each well until the appropriate stage of development was reached of 96 hpf. Two batches of embryos (3 wells per batch, n = 5–6 per well) were kept in 3 mL of zebrafish E3 medium without treatment, i.e., the control group and that was supplemented with 25 µg/mL of astragaloside IV, i.e., the experimental group. Mortality was assessed after 23, 47, 71 and 95 h of exposition. Hatchability was evaluated after 71 and 95 h of exposition. Morphological abnormalities were scored after 95 h of exposition: heartbeat, heart oedema, yolk sac utilization/necrosis, jaw development, eye size, body axis and haemorrhage. Furthermore, to assess muscle function and performance, the touch-evoked response was performed by slight touching of the tail with metal tweezers. The criteria for the larval response were as follows: absent, decreased and normal, as described in detail in our previous paper.
The obtained data were pooled together. The Chi-squared test or the Fisher’s exact test was used for statistical purposes.

For data set [6], the system named is SH-SY5Y human neuroblastoma cell line. Nature of the data set: In vitro cytotoxicity test (MTT). Conditions: for cell viability versus control group (saline): 24 h, MTT. Format: cell-based. The protocol: The SH-SY5Y human neuroblastoma cell lines (ATCC CRL-2266) were maintained in a1:1 mixture of Eagle’s Minimum Essential Medium and F12 Medium, supplemented with 10% (v/v) of foetal bovine serum. The cells were grown at 37 °C in a humidified incubator with 5% CO2.
The viability of SH-SY5Y cells was evaluated based on the reduction of the yellow tetrazolium salt (3-(4,5-dimethylthiazol-2-yl)-2,5-diphenyltetrazolium bromide or MTT) to the purple formazan crystals by the metabolically active cells. The cells were seeded onto the 96-well plates at the density of 10,000 cells/well, grown overnight and treated with astragaloside IV at 6, 12.5 or 25 μg/mL. Following 24 h of incubation the medium was replaced with 200 µL of fresh medium containing MTT (final concentration 0.5 mg/mL) and the cells were incubated for a further 4 h at 37 °C. The precipitated formazan was dissolved in 100 µL DMSO and the absorbance of the samples was measured at λ = 540 nm. The mean absorbance measured for the control cells, treated with the solvent (saline), was set to 100% cellular viability and used to calculate the percent of viable cells under each experimental condition.

Sequence of acetylcholinesterase (AChE) enzyme (P22303 32-614): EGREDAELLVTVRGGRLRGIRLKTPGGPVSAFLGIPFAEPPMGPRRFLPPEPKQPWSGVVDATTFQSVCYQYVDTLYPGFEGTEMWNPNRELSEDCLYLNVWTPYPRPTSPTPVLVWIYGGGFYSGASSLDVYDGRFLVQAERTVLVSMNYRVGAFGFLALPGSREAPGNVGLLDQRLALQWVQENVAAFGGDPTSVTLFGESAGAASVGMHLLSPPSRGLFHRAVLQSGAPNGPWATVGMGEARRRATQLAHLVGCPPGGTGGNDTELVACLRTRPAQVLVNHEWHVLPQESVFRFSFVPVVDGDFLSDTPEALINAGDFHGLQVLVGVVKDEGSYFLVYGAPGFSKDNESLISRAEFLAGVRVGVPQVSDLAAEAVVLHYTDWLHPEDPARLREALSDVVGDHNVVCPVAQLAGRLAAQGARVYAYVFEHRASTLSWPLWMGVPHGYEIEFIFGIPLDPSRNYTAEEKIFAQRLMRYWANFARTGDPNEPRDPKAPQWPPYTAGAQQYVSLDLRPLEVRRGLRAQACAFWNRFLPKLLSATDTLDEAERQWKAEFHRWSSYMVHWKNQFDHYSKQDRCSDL

Consider `CC(=O)OC1C(O)COC(OC2CCC34CC35CCC3(C)C(C6(C)CCC(C(C)(C)O)O6)C(O)CC3(C)C5CC(OC3OC(CO)C(O)C(O)C3O)C4C2(C)C)C1OC(C)=O` (stereo not drawn) [A I, Astragaloside I], for which the “s (slope of Soczewiński-Wachtmeister equation)” value is listed as 5.590 in data set [1] and 6.040 in data set [2]. Also, the logkw in data set [1] is 3.234; in data set [2], 2.713.

Consider `CC(=O)O[C@H]1[C@H](O[C@H]2CC[C@]34C[C@]35CC[C@]3(C)[C@@H]([C@@]6(C)CC[C@@H](C(C)(C)O)O6)[C@@H](O)C[C@@]3(C)[C@@H]5C[C@H](O[C@@H]3O[C@H](CO)[C@@H](O)[C@H](O)[C@H]3O)[C@H]4C2(C)C)OC[C@@H](O)[C@@H]1O` [A II, Astragaloside II], for which the “s (slope of Soczewiński-Wachtmeister equation)” value in data set [1] turned out to be 6.570; in data set [2], 4.715. Besides, the logkw in data set [1] is 3.209; in data set [2] it was 2.104. This compound gave an IC50 in data set [3] of 0.00488 mg.

As to `CC(C)(O)[C@@H]1CC[C@](C)([C@H]2[C@@H](O)C[C@@]3(C)[C@@H]4C[C@H](O)[C@H]5C(C)(C)[C@@H](O[C@@H]6OC[C@@H](O)[C@H](O)[C@H]6O[C@@H]6O[C@H](CO)[C@@H](O)[C@H](O)[C@H]6O)CC[C@@]56C[C@@]46CC[C@]23C)O1` [A III, Astragaloside III], in data set [1], the “s (slope of Soczewiński-Wachtmeister equation)” value is listed as 5.681 and the logkw is 2.627. This compound also showed an IC50 in data set [3] of 0.0033 mg. For the same compound, in data set [2], the “s (slope of Soczewiński-Wachtmeister equation)” value turned out to be 4.165 and the logkw is recorded as 1.807.

With `CC(C)(O)[C@@H]1CC[C@](C)([C@H]2[C@@H](O)C[C@@]3(C)[C@@H]4C[C@H](O[C@@H]5O[C@H](CO)[C@@H](O)[C@H](O)[C@H]5O)[C@H]5C(C)(C)[C@@H](O[C@@H]6OC[C@@H](O)[C@H](O)[C@H]6O)CC[C@@]56C[C@@]46CC[C@]23C)O1` [A IV, Astragaloside IV], in data set [1], the “s (slope of Soczewiński-Wachtmeister equation)” value was determined as 6.000 and the logkw was 2.668. The logBB in data set [4] is on record as 0.49. For the same compound, the “mortality rate versus control” value in data set [5] (25 µg/mL, 1, 2, 3 and 4 dpf, p > 0.05) was “no difference”. In addition, the larval hatchability entry in data set [5] (25 µg/mL, 3- and 4-day-old fish, p > 0.05) was “did not affect”. Further, in data set [5] (25 µg/mL, 95 h exposition), the “scored morphological abnormalities versus control” value is given as “no difference” and the touch-evoked response entry is given as “normal”. In addition, in data set [6] (25 μg/mL), the “cell viability versus control group (saline)” value is recorded as “slightly lower”. For the same compound, the “cell viability versus control group (saline)” value in data set [6] (6 and 12.5 μg/mL) is recorded as “slightly higher”. Also, in data set [6] (all analysed conditions (6, 12.5, 25 μg/mL)), the “decrease in cellular SH-SY5Y viability” value is given as “no significant decrease”. Also, in data set [3], the IC50 turned out to be 0.00316 mg. Also, in data set [2], the “s (slope of Soczewiński-Wachtmeister equation)” value is recorded as 3.965 and the logkw is reported as 1.727.
